Laboratory results published in ChEMBL document CHEMBL1141477, “Synthesis and anticancer activity studies of cyclopamine derivatives” (Bioorg Med Chem Lett, 2008).
pIC50: −log10 of the molar value. The source made the active and inactive calls. No cut-off for these calls is given here.

System: A549
Assay: Anticancer activity against human A549 cells at 200 uM by MTS assay
Format: functional, cell-based

SMILES	Activity
CC(=O)OC[C@H]1O[C@@H](n2cc(CN3C[C@@H](C)C[C@H]4O[C@]5(CC[C@@H]6C(=C5C)C[C@H]5[C@H]6CC=C6C[C@@H](O)CC[C@@]65C)[C@H](C)[C@@H]43)nn2)[C@H](OC(C)=O)[C@@H](OC(C)=O)[C@@H]1O[C@@H]1O[C@H](COC(C)=O)[C@@H](OC(C)=O)[C@H](OC(C)=O)[C@H]1OC(C)=O	inactive
CC(=O)O[C@@H]1[C@@H](OC(C)=O)[C@@H](n2cc(CN3C[C@@H](C)C[C@H]4O[C@]5(CC[C@@H]6C(=C5C)C[C@H]5[C@H]6CC=C6C[C@@H](O)CC[C@@]65C)[C@H](C)[C@@H]43)nn2)OC[C@H]1OC(C)=O	inactive
CC(=O)OC[C@H]1OC(n2cc(CN3C[C@@H](C)C[C@H]4O[C@]5(CC[C@@H]6C(=C5C)C[C@H]5[C@H]6CC=C6C[C@@H](O)CC[C@@]65C)[C@H](C)[C@@H]43)nn2)[C@@H](OC(C)=O)[C@@H](OC(C)=O)[C@@H]1OC(C)=O (stereo partly specified)	inactive
CC(=O)N[C@@H]1[C@@H](OC(C)=O)[C@H](OC(C)=O)[C@@H](COC(C)=O)O[C@H]1n1cc(CN2C[C@@H](C)C[C@H]3O[C@]4(CC[C@@H]5C(=C4C)C[C@H]4[C@H]5CC=C5C[C@@H](O)CC[C@@]54C)[C@H](C)[C@@H]32)nn1	inactive
CC(=O)OC[C@H]1O[C@@H](n2cc(CN3C[C@@H](C)C[C@H]4O[C@]5(CC[C@@H]6C(=C5C)C[C@H]5[C@H]6CC=C6C[C@@H](O)CC[C@@]65C)[C@H](C)[C@@H]43)nn2)[C@H](OC(C)=O)[C@@H](OC(C)=O)[C@H]1OC(C)=O	inactive
CC(=O)N[C@@H]1[C@@H](OC(C)=O)[C@@H](OC(C)=O)[C@@H](COC(C)=O)O[C@H]1n1cc(CN2C[C@@H](C)C[C@H]3O[C@]4(CC[C@@H]5C(=C4C)C[C@H]4[C@H]5CC=C5C[C@@H](O)CC[C@@]54C)[C@H](C)[C@@H]32)nn1	inactive

System: A549
Assay: Anticancer activity against human A549 cells by MTS assay
Format: functional, cell-based

SMILES	pIC50
CC(=O)OC[C@H]1O[C@@H](n2cc(CN3C[C@@H](C)C[C@H]4O[C@]5(CC[C@@H]6C(=C5C)C[C@H]5[C@H]6CC=C6C[C@@H](O)CC[C@@]65C)[C@H](C)[C@@H]43)nn2)[C@H](OC(C)=O)[C@@H](OC(C)=O)[C@@H]1O[C@@H]1O[C@H](COC(C)=O)[C@@H](O[C@@H]2O[C@H](COC(C)=O)[C@@H](OC(C)=O)[C@H](OC(C)=O)[C@H]2OC(C)=O)[C@H](OC(C)=O)[C@H]1OC(C)=O	4.02
CC(=O)OC[C@H]1O[C@@H](O[C@H]2[C@H](OC(C)=O)[C@@H](OC(C)=O)[C@H](n3cc(CN4C[C@@H](C)C[C@H]5O[C@]6(CC[C@@H]7C(=C6C)C[C@H]6[C@H]7CC=C7C[C@@H](O)CC[C@@]76C)[C@H](C)[C@@H]54)nn3)O[C@@H]2COC(C)=O)[C@H](OC(C)=O)[C@@H](OC(C)=O)[C@H]1OC(C)=O	3.74
CC(=O)OC[C@H]1O[C@@H](n2cc(CN3C[C@@H](C)C[C@H]4O[C@]5(CC[C@@H]6C(=C5C)C[C@H]5[C@H]6CC=C6C[C@@H](O)CC[C@@]65C)[C@H](C)[C@@H]43)nn2)[C@H](OC(C)=O)[C@@H](OC(C)=O)[C@@H]1OC(C)=O	3.84
CC1=C2C[C@H]3[C@@H](CC=C4C[C@@H](O)CC[C@@]43C)[C@@H]2CC[C@]12O[C@@H]1C[C@H](C)CN[C@H]1[C@H]2C [CYCLOPAMINE]	4.31
CC(=O)O[C@@H]1[C@@H](OC(C)=O)[C@@H](OC(C)=O)C(n2cc(CN3C[C@@H](C)C[C@H]4O[C@]5(CC[C@@H]6C(=C5C)C[C@H]5[C@H]6CC=C6C[C@@H](O)CC[C@@]65C)[C@H](C)[C@@H]43)nn2)O[C@H]1C (stereo partly specified)	4.48
